Measured values published in US20240158406A1, “PIPERAZINE DERIVATIVE AND USE THEREOF IN MEDICINE” (CHENGDU BAIYU PHARMACEUTICAL CO., LTD., priority 2021, published 2024).

Assays:
MDCKII-MDR1 cells = experiment: MDCKII-MDR1 cell permeability assay; assay type: in vitro ADME; settings: 1 μM test compound, 2 h
Method: 50 μL of MDCKII-MDR1 cell suspension with a density of 1.56×10^6 cells/mL was seeded into a Transwell well of a 96-well plate, and the plate was cultured in a cell incubator at 37° C. in 5% CO2. […] The medium in Transwell was discarded, and HBSS equilibration solution was added and incubated at 37° C. for 30 min. Subsequently, an apical to basolateral drug transport rate assay was performed by adding 1 μM test compound solution to the Transwell AB side and a blank equilibration solution to the BL side. When the basolateral to apical drug transport rate assay was performed, the operation steps were reversed. Subsequently, the cells were placed in an incubator for 2 h. After the incubation, samples were taken from the basolateral and apical respectively, and after centrifugation, the supernatant was subjected to LC-MS/MS analysis, and the apparent permeability coefficient (Papp) was calculated, the results of which are shown in Table 5.

[1] = Metabolic stability in liver microsome; assay type: in vitro ADME; settings: 0.5 mg/mL CD1 mouse liver microsome, 0.5 μM test compound, NADPH and UDPGA, 37° C.
Method: 0.5 mg/mL CD1 mouse liver microsome solution, 0.5 μM test compound, 1.0 mM reduced nicotinamide adenine dinucleotide phosphate (NADPH), and 1.0 mM uridine diphosphate-A-glucuronic acid (UDPGA) were added to the incubation plate and mixed, and the plate was incubated at 37° C. for 0, 30, 60, 120 min separately. The positive control group was set as 0.5 μM CYP3A4 probe substrate-testosterone and 0.5 μM UGT probe substrate-7-hydroxycoumarin incubated with microsomes for 0 and 120 min in the presence of NADPH and UDPGA; the negative control group (NC) was set as the test substance incubated with microsomes for 0 and 120 min without any coenzyme. After the reaction was terminated by adding pre-cooled methanol at each termination time, the reaction mixture was centrifuged at 4000 rpm for 10 min, the supernatant was taken and the remaining amount of the parent drug in the sample was measured by LC-MS/MS, the results of which are shown in Table 4.

PARP14 = PARP14 (Homo sapiens (Human), UniProt Q460N5); experiment: Enzymatic biochemical assay of PARP (chemiluminescence detection kit), PARP14
Method: (§1) This assay adopted PARP1, TNKS1, TNKS2, PARP7 and PARP14 chemiluminescence detection kits (BPS, Cat No. 80551/80552/80573/80578/79729/80568) for enzymatic biochemical assay of PARP. The specific scheme was as follows: the 1× histone mixture was added to a 96-well plate at 50 μL per well, and the plate was incubated overnight at 4° C. The next day, after the plate was washed with PBST, 200 μL of blocking buffer per well was added, and the plate was incubated for 90 min. After the plate was washed with PBST again, 5 μL of inhibitor, 20 μL of 1×PARP buffer and 25 μL of […] were added to each well, and the plate was incubated at room temperature for 30 min. After the plate was washed with PBST, 100 μL of Elisa ECL substrate A and B mixture was added to each well, chemiluminescence value was immediately read using a plate reader, and IC50 values were calculated.

TNKS2 = TNKS2 (Homo sapiens (Human), UniProt Q9H2K2); experiment: Enzymatic biochemical assay of PARP (chemiluminescence detection kit), TNKS2
Method: as §1

PARP1 = PARP1 (Homo sapiens (Human), UniProt P09874); experiment: Enzymatic biochemical assay of PARP (chemiluminescence detection kit), PARP1
Method: as §1

TNKS1 = TNKS1 (Homo sapiens (Human), UniProt O95271); experiment: Enzymatic biochemical assay of PARP (chemiluminescence detection kit), TNKS1
Method: as §1

PARP7 = PARP7 (Homo sapiens (Human), UniProt Q7Z3E1); experiment: Enzymatic biochemical assay of PARP (chemiluminescence detection kit), PARP7; settings: read-out: Inhibitory activity against PAPR7 (IC50)
Method: as §1

NCI-H1373 cells = experiment: NCI-H1373 cell proliferation inhibition assay; assay type: cell-based; settings: Homo sapiens, NCI-H1373, 144 h; 6 days of incubation, Cell Titer Blue
Method: Human lung adenocarcinoma cells NC-H1373 (ATCC, CRL-5866M) were cultured in a cell incubator at 37° C. and 5% CO2 using RPMI-1640 medium containing 10% FBS and 1% […]. The cells in the logarithmic growth phase were counted by digestion and inoculated in a 96-well plate at 1500 NCI-H1373 per well, and the plate was placed in an incubator overnight. The next day, test compounds were formulated in 10 mM stock solution by using DMSO and 3-fold diluted in gradient from a maximum concentration of 10 μM by using RPMI-1640 medium, and 10 gradient concentrations were set with 2 parallel wells per concentration gradient. After 6 days of incubation, 100 μL of Cell Titer Blue working solution was added to each well and the chemiluminescence value was read in a microplate reader. IC50 was calculated using GraphPad Prism7.0 software.

Chain of TNKS1 (O95271 whole entry): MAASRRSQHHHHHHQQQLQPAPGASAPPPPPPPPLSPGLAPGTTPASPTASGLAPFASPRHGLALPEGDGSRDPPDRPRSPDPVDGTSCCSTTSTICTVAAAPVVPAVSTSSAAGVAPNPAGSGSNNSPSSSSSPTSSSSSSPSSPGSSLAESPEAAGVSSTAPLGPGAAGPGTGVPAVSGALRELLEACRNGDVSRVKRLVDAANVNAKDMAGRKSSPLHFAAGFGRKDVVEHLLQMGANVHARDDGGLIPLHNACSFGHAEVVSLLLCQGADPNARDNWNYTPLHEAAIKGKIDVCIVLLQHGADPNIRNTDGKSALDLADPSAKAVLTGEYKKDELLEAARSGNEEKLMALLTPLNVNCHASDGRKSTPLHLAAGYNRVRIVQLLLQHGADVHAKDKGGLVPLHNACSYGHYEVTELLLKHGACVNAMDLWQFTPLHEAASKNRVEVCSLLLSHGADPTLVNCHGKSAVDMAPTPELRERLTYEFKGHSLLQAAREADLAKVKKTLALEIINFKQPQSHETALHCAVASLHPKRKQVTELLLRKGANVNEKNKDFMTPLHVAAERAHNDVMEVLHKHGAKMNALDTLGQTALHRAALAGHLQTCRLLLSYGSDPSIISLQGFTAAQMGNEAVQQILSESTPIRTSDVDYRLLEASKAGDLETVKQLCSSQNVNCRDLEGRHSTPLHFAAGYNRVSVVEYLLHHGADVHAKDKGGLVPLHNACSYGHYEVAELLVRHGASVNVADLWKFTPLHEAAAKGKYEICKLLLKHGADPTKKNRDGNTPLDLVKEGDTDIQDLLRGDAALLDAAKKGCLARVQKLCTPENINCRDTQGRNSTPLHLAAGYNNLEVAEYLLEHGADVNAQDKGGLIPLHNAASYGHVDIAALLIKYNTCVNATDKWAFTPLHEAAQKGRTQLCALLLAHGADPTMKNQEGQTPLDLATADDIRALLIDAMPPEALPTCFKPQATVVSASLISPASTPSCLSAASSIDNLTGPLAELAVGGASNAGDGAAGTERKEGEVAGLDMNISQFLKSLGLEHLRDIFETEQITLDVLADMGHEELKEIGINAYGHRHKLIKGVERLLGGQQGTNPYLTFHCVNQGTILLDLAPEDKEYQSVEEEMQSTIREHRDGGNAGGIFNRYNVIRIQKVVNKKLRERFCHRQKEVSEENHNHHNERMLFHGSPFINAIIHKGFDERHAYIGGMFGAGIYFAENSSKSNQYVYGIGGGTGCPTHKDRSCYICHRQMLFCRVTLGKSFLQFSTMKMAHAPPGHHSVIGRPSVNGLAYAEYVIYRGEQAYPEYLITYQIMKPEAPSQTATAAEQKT
Chain of PARP7 (Q7Z3E1 whole entry): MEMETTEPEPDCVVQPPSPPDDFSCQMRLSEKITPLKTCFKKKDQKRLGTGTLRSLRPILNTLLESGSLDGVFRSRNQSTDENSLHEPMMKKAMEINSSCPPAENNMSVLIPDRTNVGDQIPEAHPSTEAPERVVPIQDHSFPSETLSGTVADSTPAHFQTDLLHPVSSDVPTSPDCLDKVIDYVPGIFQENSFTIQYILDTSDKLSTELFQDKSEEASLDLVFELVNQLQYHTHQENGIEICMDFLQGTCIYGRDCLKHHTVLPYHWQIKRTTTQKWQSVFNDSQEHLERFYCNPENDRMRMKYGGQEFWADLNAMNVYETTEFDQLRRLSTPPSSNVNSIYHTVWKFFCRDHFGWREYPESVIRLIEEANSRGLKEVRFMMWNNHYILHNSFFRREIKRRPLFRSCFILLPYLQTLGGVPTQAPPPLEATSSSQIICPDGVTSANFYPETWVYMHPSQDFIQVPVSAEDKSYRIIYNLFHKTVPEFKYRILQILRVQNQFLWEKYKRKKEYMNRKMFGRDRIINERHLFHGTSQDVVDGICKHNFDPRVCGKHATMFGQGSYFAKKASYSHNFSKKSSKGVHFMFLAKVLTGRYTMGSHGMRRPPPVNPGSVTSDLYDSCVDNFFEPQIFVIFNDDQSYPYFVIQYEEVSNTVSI
Chain of TNKS2 (Q9H2K2 whole entry): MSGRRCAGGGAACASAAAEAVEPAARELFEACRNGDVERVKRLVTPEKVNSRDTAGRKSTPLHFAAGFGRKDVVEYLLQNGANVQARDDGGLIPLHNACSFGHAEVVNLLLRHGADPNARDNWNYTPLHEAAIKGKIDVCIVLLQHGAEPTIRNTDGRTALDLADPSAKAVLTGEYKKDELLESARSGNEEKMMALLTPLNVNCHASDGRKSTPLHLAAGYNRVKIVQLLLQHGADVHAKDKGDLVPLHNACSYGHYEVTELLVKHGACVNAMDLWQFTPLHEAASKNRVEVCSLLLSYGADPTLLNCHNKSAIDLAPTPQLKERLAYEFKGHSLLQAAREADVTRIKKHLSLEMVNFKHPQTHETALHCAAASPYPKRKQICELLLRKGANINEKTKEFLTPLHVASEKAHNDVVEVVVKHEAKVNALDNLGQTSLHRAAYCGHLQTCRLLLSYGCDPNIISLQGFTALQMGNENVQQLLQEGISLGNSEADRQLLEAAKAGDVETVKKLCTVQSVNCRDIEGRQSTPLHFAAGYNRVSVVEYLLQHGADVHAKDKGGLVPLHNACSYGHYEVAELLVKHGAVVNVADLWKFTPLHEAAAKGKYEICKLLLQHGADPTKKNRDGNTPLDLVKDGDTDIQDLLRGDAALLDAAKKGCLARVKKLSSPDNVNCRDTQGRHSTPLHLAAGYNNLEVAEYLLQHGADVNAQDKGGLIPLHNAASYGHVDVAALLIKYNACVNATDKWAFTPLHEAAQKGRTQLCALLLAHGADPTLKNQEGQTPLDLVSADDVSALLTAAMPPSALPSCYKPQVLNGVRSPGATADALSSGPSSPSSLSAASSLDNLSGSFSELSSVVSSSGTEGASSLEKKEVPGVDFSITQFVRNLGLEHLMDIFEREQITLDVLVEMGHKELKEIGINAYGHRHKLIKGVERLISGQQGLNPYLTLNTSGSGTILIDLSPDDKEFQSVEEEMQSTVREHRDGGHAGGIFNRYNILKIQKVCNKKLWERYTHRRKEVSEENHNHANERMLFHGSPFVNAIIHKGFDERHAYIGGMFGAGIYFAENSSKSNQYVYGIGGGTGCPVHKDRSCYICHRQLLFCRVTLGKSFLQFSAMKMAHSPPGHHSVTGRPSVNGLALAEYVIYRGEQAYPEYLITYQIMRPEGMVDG
Chain of PARP1 (P09874 whole entry): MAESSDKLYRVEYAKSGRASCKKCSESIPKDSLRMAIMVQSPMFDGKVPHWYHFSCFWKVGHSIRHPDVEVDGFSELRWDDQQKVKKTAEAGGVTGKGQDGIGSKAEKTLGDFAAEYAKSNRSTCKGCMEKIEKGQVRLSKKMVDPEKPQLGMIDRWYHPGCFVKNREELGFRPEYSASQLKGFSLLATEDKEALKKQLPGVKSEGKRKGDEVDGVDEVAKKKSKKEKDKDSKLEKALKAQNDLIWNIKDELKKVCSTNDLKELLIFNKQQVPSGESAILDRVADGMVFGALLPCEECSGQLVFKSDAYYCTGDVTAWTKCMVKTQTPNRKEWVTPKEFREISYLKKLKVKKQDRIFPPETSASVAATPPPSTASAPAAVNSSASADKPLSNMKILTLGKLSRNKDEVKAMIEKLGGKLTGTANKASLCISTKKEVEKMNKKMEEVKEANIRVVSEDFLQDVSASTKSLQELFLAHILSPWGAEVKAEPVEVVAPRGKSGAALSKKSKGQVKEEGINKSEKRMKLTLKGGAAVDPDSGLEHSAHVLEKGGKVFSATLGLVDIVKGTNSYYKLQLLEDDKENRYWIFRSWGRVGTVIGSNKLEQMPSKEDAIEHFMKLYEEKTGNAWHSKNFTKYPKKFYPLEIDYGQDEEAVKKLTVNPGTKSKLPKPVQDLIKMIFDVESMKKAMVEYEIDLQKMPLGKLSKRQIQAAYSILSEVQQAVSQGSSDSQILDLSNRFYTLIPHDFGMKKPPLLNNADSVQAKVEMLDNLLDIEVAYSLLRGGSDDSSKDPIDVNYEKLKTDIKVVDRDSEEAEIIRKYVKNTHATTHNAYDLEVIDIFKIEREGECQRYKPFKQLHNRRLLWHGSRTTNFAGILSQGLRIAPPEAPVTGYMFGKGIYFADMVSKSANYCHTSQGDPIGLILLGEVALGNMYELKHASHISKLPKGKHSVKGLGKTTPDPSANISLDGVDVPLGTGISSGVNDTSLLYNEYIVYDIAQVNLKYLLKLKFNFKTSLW

Row | SMILES | Papp (A-B) (MDCKII-MDR1 cells; apical to basolateral) | Papp (B-A) (MDCKII-MDR1 cells; basolateral to apical) | T1/2 [1] [min] | IC50 (PARP14) [nM] | IC50 (TNKS2) [nM] | IC50 (PARP1) [nM] | IC50 (TNKS1) [nM] | IC50 (PARP7) [nM] | IC50 (NCI-H1373 cells) [nM] | half-life at 0.5 μM ([1]; liver microsomes) [min]
1 | C[C@@H](COCCC(=O)N1CCN(c2ncc(C(F)(F)F)cn2)CC1)Nc1cn[nH]c(=O)c1C(F)(F)F [Comparative example, reference compound] | 5.16 10-6, cm/s | 49.43 10-6, cm/s | <30 |  |  |  |  |  |  | 
2 | C[C@@H](COCc1cc2n(n1)CCN(c1ncc(C(F)(F)F)cn1)C2)Nc1cn[nH]c(=O)c1C(F)(F)F [Compound 1] |  |  |  | > 10000 | > 10000 | > 1000 | > 10000 | 10 to 50 | < 50 | > 30
